Active and inactive are the calls of the source.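 Rule for the calls: active = IC50 under 10 µM against human M5, lowering the acetylcholine-driven calcium signal; inactive = the rest.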
Target: Muscarinic acetylcholine receptor M5 (Homo sapiens) (UniProt P08912)
Test: potency of M5 ACh response inhibition – cell-based, concentration-response curves, human M5, dose response (AID 743026)
Conditions: CHO-K1 hM5, ACh EC80 calcium flux, Fluo-4; for % of max ACh response: at 30 µM (top of the series)

Muscarinic acetylcholine receptor M5 (Homo sapiens), sequence (P08912 whole entry, looked up): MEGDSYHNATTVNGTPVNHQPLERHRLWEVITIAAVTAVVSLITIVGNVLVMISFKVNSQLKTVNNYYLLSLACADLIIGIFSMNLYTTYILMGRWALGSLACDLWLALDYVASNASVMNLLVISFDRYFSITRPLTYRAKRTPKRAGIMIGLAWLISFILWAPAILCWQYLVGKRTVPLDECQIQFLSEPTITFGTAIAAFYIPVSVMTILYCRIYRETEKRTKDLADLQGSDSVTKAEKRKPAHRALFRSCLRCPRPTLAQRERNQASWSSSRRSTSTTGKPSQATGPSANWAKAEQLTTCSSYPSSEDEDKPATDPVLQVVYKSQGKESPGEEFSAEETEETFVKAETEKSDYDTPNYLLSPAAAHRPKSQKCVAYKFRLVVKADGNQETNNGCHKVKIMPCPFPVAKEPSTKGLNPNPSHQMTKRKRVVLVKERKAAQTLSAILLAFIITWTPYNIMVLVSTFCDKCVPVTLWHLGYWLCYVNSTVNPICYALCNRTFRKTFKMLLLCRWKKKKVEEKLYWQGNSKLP

| Compound | IC50 [nM] | % of max ACh response |
| --- | --- | --- |
| O=C(c1ccc(OC(F)(F)F)cc1)N1CCN2C(=O)c3ccccc3C12c1ccc(Cl)cc1 (centres undefined) | 2360 |  |
| COc1cccc(C(=O)N2CCN3C(=O)c4ccccc4C23c2ccc(Cl)cc2)c1 (centres undefined) | 6580 |  |
| O=C1c2ccccc2C2(c3ccccc3)NCCN12 (centres undefined) |  | inactive |
| O=C1CCC2(c3ccccc3)N1CCN2C(=O)c1ccc(F)cc1 (centres undefined) |  | inactive |
| O=C(c1ccc(F)cc1)N1CCN2C(=O)c3ncccc3C12c1ccccc1 (centres undefined) |  | inactive |
| Cc1ccc(C23c4ccccc4C(=O)N2CCN3C(=O)c2ccc(OC(F)(F)F)cc2)cc1 (centres undefined) | 3470 |  |
| Cc1ccc(C23c4ccccc4C(=O)N2CCN3C(=O)c2cc(F)cc(F)c2)cc1 (centres undefined) | 2340 |  |
| O=C(c1cc(F)cc(F)c1)N1CCN2C(=O)c3ccccc3C12c1ccc(Cl)cc1 (centres undefined) | 1070 |  |
| O=C(c1ccc(F)cc1)N1CCN2C(=O)c3ccccc3C12c1ccccc1 (centres undefined) | 3430 |  |
| O=C(c1ccc2c(c1)OCO2)N1CCN2C(=O)c3ccccc3C12c1ccc(Cl)cc1 (centres undefined) | 2120 |  |
| O=C(c1ccc(F)c(F)c1)N1CCCC1(c1ccccc1)c1ccc(Cl)cc1 (centres undefined) |  | inactive |
| Cc1ccc(C(=O)N2CCN3C(=O)c4ccccc4C23c2ccc(Cl)cc2)cc1 (centres undefined) | 4160 |  |
| COc1ccc(C23c4ccccc4C(=O)N2CCN3C(=O)c2ccc(OC(F)(F)F)cc2)cc1 (centres undefined) | 6740 |  |
| COc1ccc(C23c4ccccc4C(=O)N2CCN3C(=O)c2ccc(F)c(F)c2)cc1 (centres undefined) | 1260 |  |
| O=C(c1cccc(C(F)(F)F)c1)N1CCN2C(=O)c3ccccc3C12c1ccc(Cl)cc1 (centres undefined) | 4910 |  |
| O=C(c1cccc(C(F)(F)F)c1)N1CCN2C(=O)c3ccccc3C12c1ccccc1 (centres undefined) | 3000 |  |
| O=C(c1ccc(OC(F)F)cc1)N1CCN2C(=O)c3ccccc3C12c1ccc(Cl)cc1 (centres undefined) | 4900 |  |
| O=C(c1ccc(SC(F)(F)F)cc1)N1CCN2C(=O)c3ccccc3C12c1ccccc1 (centres undefined) | 1390 |  |
| Cc1ccc(C23c4ccccc4C(=O)N2CCN3C(=O)c2ccc(SC(F)(F)F)cc2)cc1 (centres undefined) | 4040 |  |
| O=C(c1ccc(OC(F)(F)F)cc1)N1CCN2C(=O)c3ccccc3C12c1ccccc1 (centres undefined) | 4510 |  |

| Compound | IC50 [nM] | % of max ACh response |
| --- | --- | --- |
| O=C(c1ccc(C(F)(F)F)cc1)N1CCN2C(=O)c3ccccc3C12c1ccccc1 (centres undefined) | 1950 |  |
| CSc1ccc(C23c4ccccc4C(=O)N2CCN3C(=O)c2ccc(F)c(F)c2)cc1 (centres undefined) | 1510 |  |
| C[C@H]1CN[C@]2(c3ccc(Cl)cc3)c3ccccc3C(=O)N12 |  | inactive |
| O=C(c1ccc(SC(F)(F)F)cc1)N1CCN2C(=O)c3ccccc3C12c1ccc(Cl)cc1 (centres undefined) | 3100 |  |
| CC(C)Oc1ccc(C(=O)N2CCN3C(=O)c4ccccc4C23c2ccc(Cl)cc2)cc1 (centres undefined) | 790 |  |
| O=C1c2ncccc2C2(c3ccccc3)NCCN12 (centres undefined) |  | inactive |
| C[C@H]1CN(C(=O)c2ccc(F)c(F)c2)[C@]2(c3ccc(Cl)cc3)c3ccccc3C(=O)N12 |  | inactive |
| O=C(c1cc(F)cc(F)c1)N1CCN2C(=O)c3ccccc3C12c1ccccc1 (centres undefined) | 3840 |  |
| O=C(c1ccccc1)N1CCN2C(=O)c3ccccc3C12c1ccc(Cl)cc1 (centres undefined) | 1630 |  |
| O=C(c1cccc(C(F)(F)F)c1)N1CCN2C(=O)c3ccccc3C12c1ccc(F)cc1 (centres undefined) | 2090 |  |
| O=C(c1ccc(F)c(F)c1)N1CCN2C(=O)c3ccccc3C12c1ccccc1 (centres undefined) | 1020 |  |
| C=CCOc1ccc(C23c4ccccc4C(=O)N2CCN3C(=O)c2ccc(F)c(F)c2)cc1 (centres undefined) | 8930 |  |
| Cc1ccc(C23c4ccccc4C(=O)N2CCN3C(=O)c2ccc(F)c(F)c2)cc1 (centres undefined) | 2620 |  |
| O=C(c1ccc(C(F)(F)F)cc1)N1CCN2C(=O)c3ccccc3C12c1ccc(Cl)cc1 (centres undefined) | 2070 |  |
| O=C(c1ccc(F)cc1)N1CCN2C(=O)c3ccccc3C12c1ccc(Cl)cc1 (centres undefined) |  | inactive |
| O=C(c1ccc(SC(F)(F)F)cc1)N1CCN2C(=O)c3ccccc3C12c1ccc(F)cc1 (centres undefined) | 1290 |  |
| COc1ccc(C23c4ccccc4C(=O)N2CCN3C(=O)c2ccc(SC(F)(F)F)cc2)cc1 (centres undefined) | 8060 |  |
| O=C(c1cc(Cl)cc(Cl)c1)N1CCN2C(=O)c3ccccc3C12c1ccccc1 (centres undefined) | 5810 |  |
| O=C(c1ccc(F)c(F)c1)N1CCN2C(=O)c3ncccc3C12c1ccccc1 (centres undefined) |  | inactive |

Source: PubChem BioAssay AID743026 (Vanderbilt Specialized Chemistry Center, 2013)
